Test results: patent US5444071A, “Quinoline derivatives and use thereof as angiotensin II antagonists” (Imperial Chemical Industries PLC, priority 1989, dated 1995)

Tested on: angiotensin II-induced pressor responses
Experiment: Test C: antagonism of angiotensin II-induced pressor responses in rats
Assay type: in vivo
Details: iv, rat, i.v. administration
From the text: The antagonism of one or more of the physiological actions of AII and, in particular, the antagonism of the interaction of AII with the receptors which mediate its effects on a target tissue, may be assessed using one or more of the following, routine laboratory procedures: Test C: This in vivo test involves using terminally-anaesthetised or conscious rats in which an arterial catheter has been implanted under anaesthesia for the measurement of changes in blood pressure. The AII antagonistic effects of the test compound following oral or parenteral administration, are assessed against angiotensin II-induced pressor responses. To ensure that the effect is specific, the effect of the test compound on vasopressin-induced pressor responses may also be determined in the same preparation.

**Q.** With Cc1cc(OCc2ccc(-c3ccccc3-c3nnn[nH]3)cc2)c2ccccc2n1.Cl [Example 7, 2-methyl-4-[(2'-(1H-tetrazol-5-yl)biphenyl-4-yl)methoxy]quinoline hydrochloride] as the molecule, how does the ED50 read?
**A.** 0.5 mg/kg
